According to patent publication US9023789B2, “Amylin analogs and pharmaceutical compositions thereof” (Novo Nordisk A/S, priority 2012, dated 2015):
pEC50, pIC50: −log10 of the molar value. Numbered stars: 1 amine (or outer) side, 2 acyl side, 3 side chain; on linkers, the order of the positions; unused ones are H or OH. Bridge positions count the residues as written; N and C are the ends. Side chains are listed from the residue outwards. Peptide text beside a SMILES is read from it. * marks the point of attachment. C20 diacid = O=C(O)CCCCCCCCCCCCCCCCCCC(=O)*; γGlu = O=C(O)[C@H](CCC(=O)[*:2])N[*:1]

How the values were obtained:
[1] = ASSAY (III) ThT fibrillation assay for physical stability; format: physicochemical
How it was run: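 Formulations with 1 μM ThT, pH adjusted as required, incubated at 37 °C with 960 rpm orbital shaking; fluorescence (ex 444/em 485 nm) read every 20 min. Fibrillation reported as mean ThT fluorescence ± SD of 4–8 replicates at time points; polypeptide concentration measured by reverse-phase HPLC before and after, post-centrifugation.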

[2] = target: T1, human calcitonin (a) receptor in BHK570 cells (Homo sapiens, UniProt P30988); assay: ASSAY (II)a functional assay, human calcitonin receptor (CRE luciferase); format: cell-based; conditions: read-out: hCTR funct. EC50
T1 construct: expressed in transfected cells
T1 sequence (P30988 25-474): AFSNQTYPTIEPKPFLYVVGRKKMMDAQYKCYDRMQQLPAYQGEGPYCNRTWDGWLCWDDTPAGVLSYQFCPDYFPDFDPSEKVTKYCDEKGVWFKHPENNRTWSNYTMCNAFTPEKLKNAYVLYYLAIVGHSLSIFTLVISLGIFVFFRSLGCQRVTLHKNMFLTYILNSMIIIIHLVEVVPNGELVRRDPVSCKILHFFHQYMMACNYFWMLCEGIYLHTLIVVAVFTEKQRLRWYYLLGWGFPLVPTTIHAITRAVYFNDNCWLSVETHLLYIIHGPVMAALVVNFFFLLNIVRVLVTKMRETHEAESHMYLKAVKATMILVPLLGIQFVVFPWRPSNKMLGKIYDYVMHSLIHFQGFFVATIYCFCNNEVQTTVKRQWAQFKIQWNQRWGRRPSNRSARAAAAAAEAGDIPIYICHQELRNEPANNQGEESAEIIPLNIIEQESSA
How it was run: (§1)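 BHK cells stably carrying a CRE-luciferase reporter plus calcitonin receptor, or calcitonin receptor with RAMP-3 for the amylin 3(a) receptor, were seeded and kept overnight at 37° C. Compounds were added in assay medium with 10% FBS and 10 mM Hepes, pH 7.4, for 3 hours at 37° C, then luminescence was counted.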

[3] = target: T2, human calcitonin receptor (Homo sapiens, UniProt P30988); assay: ASSAY (VII) binding to the human calcitonin receptor (SPA, 125I-Calcitonin); conditions: read-out: hCTR bind IC50;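 note: cell membranes (35 ng/µL) combined with SPA beads in 40 µL of pH 7.4 Hepes buffer, 384-well format, signal counted on a TopCounter instrument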
T2 construct: expressed in transfected cells
T2 sequence (P30988 25-474): T1 sequence (P30988 25-474)

[4] = ASSAY (X) pK, determination of T½ in rat; format: in vivo; conditions: male, Sprague Dawley, plasma, iv, 20 nmol/kg
[5] = target: T3, human amylin 3(a) receptor (human calcitonin receptor + RAMP-3) in BHK570 cells (Homo sapiens, UniProt O60896+P30988); assay: ASSAY (II)a functional assay, human amylin receptor (CRE luciferase); format: cell-based
T3 construct: expressed in transfected cells
T3 sequence (O60896 24-148, one chain of several): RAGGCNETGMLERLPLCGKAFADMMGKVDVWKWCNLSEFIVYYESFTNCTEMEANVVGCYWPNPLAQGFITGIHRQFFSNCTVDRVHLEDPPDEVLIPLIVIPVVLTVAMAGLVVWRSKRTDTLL
How it was run: as §1

## CC[C@H](C)[C@H](NC(=O)[C@H](C)NC(=O)CNC(=O)[C@H](Cc1ccccc1)NC(=O)[C@H](CC(N)=O)NC(=O)[C@@H]1CCCN1C(=O)[C@H](CO)NC(=O)[C@H](CO)NC(=O)[C@H](Cc1c[nH]cn1)NC(=O)[C@H](CCCNC(=N)N)NC(=O)[C@H](CC(C)C)NC(=O)[C@H](Cc1ccccc1)NC(=O)[C@H](CCCNC(=N)N)NC(=O)[C@H](C)NC(=O)[C@H](CC(C)C)NC(=O)[C@H](CCCNC(=N)N)NC(=O)[C@H](CCC(N)=O)NC(=O)[C@@H](NC(=O)[C@H](C)NC(=O)[C@@H]1CSSC[C@H](NC(=O)[C@@H](N)CCCCNC(=O)CC[C@H](NC(=O)CCCCCCCCCCCCCCCCCCC(=O)O)C(=O)O)C(=O)N[C@@H](CC(N)=O)C(=O)N[C@@H]([C@@H](C)O)C(=O)N[C@@H](C)C(=O)N[C@@H]([C@@H](C)O)C(=O)N1)[C@@H](C)O)C(=O)N1CCC[C@H]1C(=O)N[C@@H](CO)C(=O)N[C@@H](CO)C(=O)N[C@H](C(=O)N[C@@H](CC(N)=O)C(=O)N[C@H](C(=O)NCC(=O)N1CCC[C@H]1C(=O)N[C@@H](CC(N)=O)C(=O)N[C@H](C(=O)N[C@@H](Cc1ccc(O)cc1)C(N)=O)[C@@H](C)O)C(C)C)[C@@H](C)O [Example 65] (H-K([γGlu-C20 diacid])CNTATCATQRLARFLRHSSPNFGAIPSSTNVGPNTY-NH2; disulfide 2-7 (inferred); N-terminus assumed)
[1]
  ThT pH 4.0 lag time (h): 45 h
[2]
  pEC50: 8.03
[3]
  pIC50: 7.27
[4]
  half-life: 3 h
[5]; hCTR funct. EC50 divided by hAmylin-R funct. EC50
  Ratio hCT/hAmylin funct.: 38.6
[5]; hCTR funct. EC50 over hAmylin-R funct. EC50
  Ratio hCT/hAmylin funct.: 38.6
[5]; human amylin receptor functional potency, assay (II), read-out: hAmylin-R funct. EC50
  pEC50: 9.62
[5]; human functional selectivity: hCTR funct. EC50 / hAmylin-R funct. EC50
  Ratio hCT/hAmylin funct.: 38.6
